Reference: EP1007514B1, “HETEROCYCLIC KETONES AS NPY Y5 ANTAGONISTS” (BAYER CORPORATION, priority 1997, dated 1999)

Tests used:
[1] = biological target: human Y4/PP1 (Homo sapiens, UniProt P50391); test: NPY Y4/PP1 receptor membrane binding, [125I] human PP; details: membrane protein; 50 pM [125I] human PP; test compounds at 5 µM final concentration; read-out: IC50 (µM) NPY receptor indicated hY4/pp1
Method: Assays to determine binding affinity for human NPY Y2 and Y4/PP1 receptor subtypes are performed on GF/C Millipore 96-well plates pretreated with 0.02% polyethylenimine. The binding buffer for rat NPY Y2 receptor subtype binding is Krebs-Ringer bicarbonate (pH 7.4) containing 0.01% BSA and 0.005% bacitracin. Samples consist of membrane protein, 25 pM [^125I]PYY and test compounds at 5 µM final concentration. Nonspecific binding is defined by 1 µM NPY. The binding buffer for human Y4/PP1 binding consists of 137 mM NaCl, 5.4 mM KCl, 0.44 mM KH2PO4, 1.26 mM CaCl2, 0.81 mM MgSO4, 20 mM HEPES, 1 mM dithiothreitol, 0.1% bacitracin, 100 mg/l streptomycin sulfate, 1 mg/l aprotinin, 10 mg/ml soybean trypsin inhibitor and 0.3% BSA, pH 7.4. Samples consist of membrane protein, 50 pM human [^125I] human PP (hPP:NEN DuPont, Boston MA) and test compounds diluted to a final concentration of 5 µM. One µM hPP is used to define nonspecific binding. After a 2 hour incubation at room temperature with constant mixing, the samples are aspirated on a vacuum manifold, and rinsed with ice-cold binding buffer. The amount of radioactivity in each well is quantitated with either gamma counting or liquid scintillation.

[2] = biological target: T1, rat NPY Y5 receptor subtype (Rattus norvegicus, UniProt Q63634); test: NPY Y5 receptor membrane binding, [125I]PYY (rat); details: membrane protein; 75-100 pM [125I]PYY; 50% inhibition of specific binding; read-out: IC50 (µM) NPY receptor indicated rY5
T1 sequence (Q63634 1-445): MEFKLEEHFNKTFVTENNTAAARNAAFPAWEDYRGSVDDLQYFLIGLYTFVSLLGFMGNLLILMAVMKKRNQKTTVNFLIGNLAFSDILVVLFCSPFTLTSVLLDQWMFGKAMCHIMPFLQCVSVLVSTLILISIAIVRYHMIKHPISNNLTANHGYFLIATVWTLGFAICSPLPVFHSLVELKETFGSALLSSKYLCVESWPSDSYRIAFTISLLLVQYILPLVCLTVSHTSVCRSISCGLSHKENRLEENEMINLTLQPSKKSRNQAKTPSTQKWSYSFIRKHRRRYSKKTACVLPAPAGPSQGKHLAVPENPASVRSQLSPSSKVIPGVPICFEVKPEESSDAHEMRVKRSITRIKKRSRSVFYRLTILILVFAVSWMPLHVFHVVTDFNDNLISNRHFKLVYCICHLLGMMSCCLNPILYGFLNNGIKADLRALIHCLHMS
Method: Assays to determine human and rat NPY Y5 receptor subtype binding affinity are performed on GF/C Millipore 96-well plates pretreated with 0.02% polyethylenimine. The binding buffer is 25 mM Tris, 120 mM NaCl, 5 mM KCl, 1.2 mM KH2PO4, 2.5 mM CaCl2, 1.2 mM MgSO4, 0.1% BSA and 0.5 mg/ml bacitracin, pH 7.4. Samples consist of membrane protein, 75-100 pM [^125I] PYY (porcine, NEN-DuPont) and test compounds diluted in binding buffer. Nonspecific binding is defined by 1 µM PYY. After a 2 hour incubation at room temperature with constant mixing, the samples are aspirated on a vacuum manifold and rinsed with ice-cold binding buffer. The amount of radioactivity in each well is quantitated with either gamma counting or liquid scintillation. IC50 values, which correspond to 50% inhibition of specific binding, are determined with non-linear regression analysis.

[3] = biological target: T2, rat NPY Y5 receptor (Rattus norvegicus, UniProt Q63634); test: In vitro functional assay, forskolin-stimulated cAMP in cells stably expressing the receptor; assay type: cell-based; details: percentage of forskolin-stimulated adenylate cyclase; 1 µM forskolin; test compound 10 µM; 80 - 120% indicates no significant agonistic effect
T2 construct: expressed in transfected cells
T2 sequence (Q63634 1-445): T1 sequence (Q63634 1-445)
Method: An in vitro functional assay to determine rat NPY Y5 receptor subtype binding affinity is performed by resuspending cells stably expressing the rat NPY Y5 receptor in serum-free DMEM containing 10 mM HEPES (pH 7.4) and 1 mM isobutylmethylxanthine (IBMX). One µM forskolin and test compounds at a final concentration of 10 µM are then added to the cells. After a 20 minute incubation of the samples at 37°C, the assay is stopped by placing the samples in boiling water for 3 minutes. The cAMP produced in each sample is quantitated with a radioimmunoassay kit (NEN DuPont). Data are expressed as a percentage of forskolin-stimulated adenylate cyclase. Data between 80 - 120% indicates no significant agonistic effect.

Chain of human Y4/PP1 (P50391 whole entry): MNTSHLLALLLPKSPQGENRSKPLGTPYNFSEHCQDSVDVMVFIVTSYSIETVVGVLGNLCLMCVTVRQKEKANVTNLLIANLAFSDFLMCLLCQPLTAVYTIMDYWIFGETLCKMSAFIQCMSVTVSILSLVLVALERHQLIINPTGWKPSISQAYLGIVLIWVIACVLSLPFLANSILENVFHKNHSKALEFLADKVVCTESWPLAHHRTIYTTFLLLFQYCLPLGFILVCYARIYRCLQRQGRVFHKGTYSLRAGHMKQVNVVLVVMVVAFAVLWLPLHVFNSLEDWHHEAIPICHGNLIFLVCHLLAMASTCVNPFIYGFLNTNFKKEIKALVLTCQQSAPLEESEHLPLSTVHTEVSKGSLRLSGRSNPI

IC50 [1]	IC50 [2]	% forskolin at 10 µM [3]	SMILES
> 5 µM	0.0526 µM	122%	Cc1ccc(S(=O)(=O)CC(C(=O)c2nc3cc(C)c(C)cc3[nH]2)c2ccccc2)cc1 (stereo not shown) [Compound 7, (5,6-Dimethyl-1H-benzoimidazol-2-yl)-2-phenyl-3-(toluene-4-sulfonyl)-propan-1-one]
> 5 µM	0.0067 µM	106%	COc1ccc(S(=O)(=O)CC(C(=O)c2nc3ccccc3[nH]2)c2ccccc2)cc1 (stereo not shown) [Compound 10, 1-(1H-Benzoimidazol-2-yl)-3-(4-methoxy-benzenesulfonyl)-2-phenyl-propan-1-one]
> 5 µM	0.46 µM	–	Cc1ccc(SCC(C(=O)c2ncc[nH]2)c2ccccc2)cc1 (stereo not shown) [Compound 2, (1H-Imidazol-2-yl)-2-phenyl-3-p-tolylsulfanyl-propan-1-one]
> 5 µM	0.011 µM	105%	O=C(c1nc2ccccc2[nH]1)C(CS(=O)(=O)c1ccccc1)c1ccccc1 (stereo not shown) [Compound 8, 3-Benzenesulfonyl-1-(1H-benzoimidazol-2-yl)-2-phenyl-propan-1-one]
> 5 µM	–	99%	COc1ccc2[nH]c(C(=O)C(CS(=O)(=O)c3ccc(C)cc3)c3ccccc3)nc2c1 (stereo not shown) [Compound 14, 1-(5-Methoxy-1H-benzoimidazol-2-yl)-2-phenyl-3-(toluene-4-sulfonyl)-propan-1-one]

SMILES	IC50 [1]	IC50 [2]	% forskolin at 10 µM [3]
Cc1ccc(S(=O)(=O)CC(C(=O)c2nc3ccccc3s2)c2ccccc2)cc1 (stereo not shown) [Compound 6, 1-Benzothizol-2-yl-2-phenyl-3-(toluene-4-sulfonyl)-propan-1-one]	> 5 µM	10 µM	89%
